Patent publication US10526322B2, “Inhibitors of kidney-type glutaminase, GLS-1” (CORNELL UNIVERSITY, priority 2014, dated 2020)

What was measured:
[1] = biological target: T1, 488-GAC (mouse kidney-type glutaminase isoform 2, GAC) (Mus musculus, UniProt D3Z7P3); test: Real-time binding assay, quenching of 488-GAC fluorescence; settings: 10 nM 488-GAC, 10 μM BPTES
T1 construct: (residues 72-603) was cloned into a pET23a vector; His-tag with thrombin cleavage site (N, cleaved yes); made in house
T1 sequence (D3Z7P3 72-603 isoform D3Z7P3-2): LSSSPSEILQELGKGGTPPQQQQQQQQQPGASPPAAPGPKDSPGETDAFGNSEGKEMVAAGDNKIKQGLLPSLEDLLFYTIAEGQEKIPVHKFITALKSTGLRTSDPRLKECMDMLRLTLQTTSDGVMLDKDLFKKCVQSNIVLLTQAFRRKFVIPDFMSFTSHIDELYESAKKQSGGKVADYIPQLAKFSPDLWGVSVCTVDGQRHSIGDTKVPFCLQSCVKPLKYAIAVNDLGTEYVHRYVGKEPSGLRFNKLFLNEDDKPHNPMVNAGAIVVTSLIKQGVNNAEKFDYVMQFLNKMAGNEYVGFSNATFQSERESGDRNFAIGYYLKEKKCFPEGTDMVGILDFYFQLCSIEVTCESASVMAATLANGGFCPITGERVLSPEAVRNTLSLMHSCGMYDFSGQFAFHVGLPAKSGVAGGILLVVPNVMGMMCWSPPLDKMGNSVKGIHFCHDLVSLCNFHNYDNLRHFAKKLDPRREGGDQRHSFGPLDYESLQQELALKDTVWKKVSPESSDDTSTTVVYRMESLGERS
Description: A plasmid encoding the mouse kidney-type glutaminase isoform 2 (GAC, GenBank Accession No. NP_001106854.1, which is hereby incorporated by reference in its entirety) (residues 72-603) was cloned into a pET23a vector containing an N-terminal histidine (His)-tag and thrombin cleavage site. The expressed protein was purified using Co^2+ affinity beads (Clontech), followed by His-tag cleavage with human thrombin (Haemetologic Technologies) overnight at 4° C., and subsequently purified by anion exchange (GE healthcare) and gel filtration chromatography. […] The stoichiometry of labeling was determined using the probe manufacturer's reported molar absorptivity values and instructions. Briefly, the concentration of GAC was determined by first correcting absorbance at 280 nm (Abs280) for each probe, using the reported correction values (0.11 for AlexaFluor 488 and 0.23 for QSY-9) and their absorbance values at their absorbance maxima (495 nm and 562 nm, respectively). The corrected Abs280 was used along with the experimentally determined molar absorptivity of GAC (ε280=38,850 M−1 cm−1). AlexaFluor 488 and QSY-9 probes were quantified using their respective absorbance maxima and the manufacturer's reported molar absorptivity values (ε495=71,000 M−1 cm−1 and ε562=85,000 M−1 cm−1). […]

GAC = biological target: T2, GAC (Mus musculus, UniProt D3Z7P3); test: Real-time GAC enzyme activity assay coupled to glutamate dehydrogenase (NADH fluorescence); format: biochemical; settings: for concentration inhibiting the GAC isoform compared with parent compound 968: in vitro inhibition, FIG. 9 / FIG. 11
T2 construct: (residues 72-603) was cloned into a pET23a vector; His-tag with thrombin cleavage site (N, cleaved yes); made in house
T2 sequence (D3Z7P3 72-603 isoform D3Z7P3-2): T1 sequence (D3Z7P3 72-603 isoform D3Z7P3-2)
Description: A plasmid encoding the mouse kidney-type glutaminase isoform 2 (GAC, GenBank Accession No. NP_001106854.1, which is hereby incorporated by reference in its entirety) (residues 72-603) was cloned into a pET23a vector containing an N-terminal histidine (His)-tag and thrombin cleavage site. The expressed protein was purified using Co^2+ affinity beads (Clontech), followed by His-tag cleavage with human thrombin (Haemetologic Technologies) overnight at 4° C., and subsequently purified by anion exchange (GE healthcare) and gel filtration chromatography. Purified GAC was stored in a high salt-containing buffer (20 mM Tris-HCl pH 8.5, 500 mM NaCl, 1 mM NaN3) at −80° C., following snap freezing in liquid N2 for long term use. Labeling recombinant GAC with small molecule probes was performed by exchanging 1.5 mg of enzyme into 50 mM HEPES, pH 7.2, and 100 mM NaCl (labeling buffer), using a PD10 desalting column (GE healthcare). The enzyme was then incubated with 50 μM (5-fold excess of enzyme) of either AlexaFluor 488 succinimidyl ester or QSY9 succinimidyl ester (Molecular Probes) for 1 hour at 4° C. After 1 hour, the labeling reaction was quenched with 150 mM Tris-HCl, pH 8.5, and unreacted probe was separated from labeled-enzyme using a PD10 desalting column, eluting labeled-GAC back into the high salt-containing buffer. The stoichiometry of labeling was determined using the probe manufacturer's reported molar absorptivity values and instructions. Briefly, the concentration of GAC was determined by first correcting absorbance at 280 nm (Abs280) for each probe, using the reported correction values (0.11 for AlexaFluor 488 and 0.23 for QSY-9) and their absorbance values at their absorbance maxima (495 nm and 562 nm, respectively). The corrected Abs280 was used along with the experimentally determined molar absorptivity of GAC (ε280=38,850 M−1 cm−1). AlexaFluor 488 and QSY-9 probes were quantified using their respective absorbance maxima and the manufacturer's reported molar absorptivity values (ε495=71,000 M−1 cm−1 and ε562=85,000 M−1 cm−1).
Real-time fluorescence monitoring of 968 binding and GAC activity through production of NADH was performed on a Varian Cary Eclipse Fluorometer, whereas small molecule inhibition and binding titrations were performed in a 96-well format in a Tecan Saphire absorbance and fluorescence plate reader. Samples for monitoring real-time binding of 968 to 488-GAC were prepared by adding 10 μL of varying concentrations of 968 prepared in DMSO to an equilibrated 1 mL sample of 10 nM 488-GAC, while observing 488 fluorescence (490 nm excitation/520 nm emission). Similarly, this method was replicated for monitoring real-time binding of 968 to mutant forms of GAC, namely 488-labeled GAC (GD391K) and 488-GAC (D391K, K316E, R459E). Real-time activity assays monitoring 968 binding and NADH production were prepared in 1 mL samples, where 10 units of glutamate dehydrogenase (Sigma) and 2 mM NAD+ (Sigma) were prepared in 50 mM Tris-Acetate, pH 8.5, 0.1 mM EDTA and equilibrated at 20° C. WT GAC (10 nM) was added and allowed to equilibrate 2 minutes before monitoring the fluorescence emission of 488-GAC (490 nm excitation, 520 nm emission) and NADH (340 nm excitation, 490 nm emission). Appropriate dilutions of 968 or BPTES prepared in DMSO were introduced after 30 seconds and allowed to equilibrate for 2 minutes before a 180 μL solution of K2HPO4 and glutamine was added to make a final concentration of 50 mM K2HPO4 and 20 mM glutamine, to initiate GAC activation. The activity of GAC was measured in a coupled assay, by monitoring the NADH produced by glutamate dehydrogenase, which converts the product of the glutaminase-catalyzed reaction, glutamate, to α-ketoglutarate and ammonia by reducing NAD+ to NADH. […]

488-GAC and QSY9-GAC = biological target: T3, 488-GAC and QSY9-GAC (Mus musculus, UniProt D3Z7P3); test: FRET assay for GAC tetramer formation; format: binding; settings: 25 nM 488-GAC and 25 nM QSY9-GAC
T3 construct: (residues 72-603) was cloned into a pET23a vector; His-tag with thrombin cleavage site (N, cleaved yes); made in house
T3 sequence (D3Z7P3 72-603 isoform D3Z7P3-2): T1 sequence (D3Z7P3 72-603 isoform D3Z7P3-2)
Description: Fluorescence experiments were performed using a Varian Cary Eclipse Fluorometer in the counting mode. Excitation and emission wavelengths were 490 and 520 nm, respectively. Experiments were all performed using 1-mL samples with continuous stirring at 20° C. in 50 mM Tris-Acetate, pH 8.5, 0.1 mM ethylenediamine tetraacetic acid (EDTA). For wild-type (WT) GAC titrations in the absence of inorganic phosphate, 25 nM 488-GAC was equilibrated with 25 μL of QSY9-GAC (at varying concentrations) and allowed to equilibrate for 10 minutes, at which point 75 μL of the appropriate concentration of unlabeled WT GAC was added to provide a 10-fold excess over labeled-GAC. To test whether the purified GAC mutants can form oligomers with WT GAC, 200 nM QSY9-GAC (D391K) or 200 nM QSY9-GAC (D391K, K316E, R459E) was added to an equilibrated sample of 20 nM 488-WT GAC. When assaying the effects of BPTES and 968 on oligomer formation, BPTES or 968 was added following equilibration of a sample of 25 nM QSY9-WT GAC and 25 nM 488-WT GAC. Both BPTES and 968 were prepared in DMSO, and appropriate dilutions were made so that less than 2% (v/v) DMSO was added to an experimental sample.

Compound | concentration inhibiting the GAC isoform compared with parent compound 968 (GAC) | also measured
O=C(Cc1ccccc1)Nc1nnc(CCSCCc2nnc(NC(=O)Cc3ccccc3)s2)s1 [BPTES] | – | effect on 488-GAC fluorescence [1]: does not directly affect; inhibition of GAC activity (GAC; 10 nM 488-GAC, 10 μM BPTES): strongly inhibits; effect on GAC tetramer formation (488-GAC emission in mixture with QSY9-GAC) (488-GAC and QSY9-GAC): immediate quenching
CN(C)c1ccc(C2Nc3ccc4ccccc4c3C3=C2C(=O)CC(c2ccccc2)C3)cc1Br (centres unmarked) [SU-10] | lower concentration than the parent compound, 968 | –
CCN(CC)c1ccc(CNc2ccc3ccccc3c2)cc1[NH2+][O-] [SU-31] | lower concentration than the parent compound, 968 | –
CN(C)c1ccc(CNc2cccc3ccccc23)cc1Br [SU-20] | lower concentration than the parent compound, 968 | –
CC1(C)CC(=O)C2=C(C1)c1cc(-c3ccccc3)ccc1NC2c1ccc(-c2ccccc2)cc1 (centres unmarked) [SU-15] | lower concentration than the parent compound, 968 | –
CN(C)c1ccc(C2Nc3ccc4cc5ccccc5cc4c3C3=C2C(=O)CC(C)(C)C3)cc1Br (centres unmarked) [SU-14] | lower concentration than the parent compound, 968 | –
CN(C)c1ccc(C2Nc3c(ccc4ccccc34)C3=C2C(=O)CC(C)(C)C3)cc1Br (centres unmarked) [SU-1] | lower concentration than the parent compound, 968 | –
CC1(C)CC(=O)C2=C(C1)c1c(ccc3cc4ccccc4cc13)NC2c1ccc(C2(C(F)(F)F)N=N2)cc1 (centres unmarked) [SU-24] | lower concentration than the parent compound, 968 | –
[O-][NH2+]c1cc(CNc2ccc3ccccc3c2)ccc1N1CCCC1 [SU-29] | lower concentration than the parent compound, 968 | –
